Results on four compounds are retold here after US11813262B2, “Compositions and methods to increase muscular strength” (priority 2017, dated 2023).

The test system of assay [1] is 3D engineered skeletal muscle tissue from C2Cl2 myoblasts. Description: Contractility of 3D engineered optogenetic skeletal muscle tissue (displacement of compliant cantilever). The class given is cell-based, mouse. Conditions: for effect on muscle contraction of 3D muscle: other actin disrupters. An excerpt: An in vitro optogenetic skeletal muscle micro-tissue as a model system (e.g., engineered skeletal muscle) such as the one shown in FIG. 1A-1E was used. Briefly, a sacrificial molding technique was used to form the muscle tissue on the cantilevers. A steel rod was used to mold a cylindrical hole in solidified gelatin. The steel rod was then removed and myoblasts in an extracellular matrix material was inserted in its place. The myoblasts were then differentiated in place to form a differentiated muscle tissue. With this system, a range of actin inhibitors were tested (e.g., Cytochalasin D (Zygosporin A), Latrunculin A, SMIFH2, CK666 and Jasplakinode) including ones that bind to the barbed end of F-actin, ones that sequester G-actin monomers and inhibitors of formins, roughly a 100% increase in muscle strength was observed (FIGS. 2A-2B and FIGS. 3A-3B) and a 300% increase in external work performed was observed, within 2 hours of F-actin disruption. Additionally, disruption of the dynamic F-actin cytoskeleton using small molecule actin dynamics inhibitors led to a persistent 2-fold improvement in force (e.g., muscle performance or work) compared to exercising (FIG. 4A-4E). Actin disruption improved mouse muscle explant force, a model system that is very close to human muscle (FIG. 5A-5C).
(§1) Fabrication of a 3D engineered skeletal muscle tissue by differentiating C2Cl2 myoblasts mixed in a fibrin/matrigel extracellular matrix cast in to a muscle-like cylindrical shape using a sacrificial molding technique. The muscle tissue is anchored to a stiff cantilever and a more compliant cantilever. Optogenetic stimulation of the muscle tissue lead to muscle contraction which was quantified through measurable displacements of the compliant cantilever. ZygoA treatment of the 3D muscle tissues lead to a significant improvement in contraction relative to DMSO treated controls, reaching ˜2-fold increase in 2 hours.

The subject of assay [2] is mouse hindlimb extensor digitorum longus (EDL) muscle explant. Description: Contractility of mouse hindlimb EDL muscle explant on cantilevers under electrical stimulation. An excerpt: The hindlimb extensor digitorum longus (EDL) muscle of a euthanized 2-3 month old male mouse was dissected. The EDL muscle was anchored between two kapton cantilevers using a cyanoacrylate glue. One of the cantilevers was movable whose position could be adjusted to change the resting tension of the muscle. The cantilever was moved to the point where maximal force was produced and was held at this point for the rest of the experiment. (FIG. 7A-7B).
The two colored envelopes around the curves representing the mean are the 68% and 95% confidence interval envelopes (FIG. 7D). ZygoA treated tissues that responded the best, with an average of ˜2× transient increase in contraction after treatment, followed by decline (FIG. 7E). […] Modeling the decline associated with rigor mortis as an exponential decay estimated the “true” strength change after treatment. The muscle strength was compared of tissue after treatment extrapolated to time t=0 and represent this as a strength ratio relative to the actual strength at t=0. ZygoA treated tissues show a ˜2.5-fold increase in median strength ratio relative to DMSO treated controls.

Assay [3] has as its system F-actin. Description: Phalloidin stain of F-actin in mouse EDL muscle explants. Particulars: 3 uM, 2 hours of treatment, vs DMSO.
Assay [4] has as its system differentiated C2Cl2 myotubes. Description: Active contraction of differentiated optogenetic C2Cl2 myotubes (Index of Movement). The class given is cell-based, mouse.
Description: as §1

Assay [5] relates to F-actin. Description: Fluorescence recovery after photobleaching of GFP-tagged G-actin in C2Cl2 myotubes. The assay is classed as cell-based, mouse. An excerpt:
The fluorescence recovery in differentiated myotubes was affected by 3 different events: diffusion, dynamic F-actin turnover and stable F-actin turnover. DMSO treated tissues recovered faster than ZygoA treated tissues. […] These myotubes were excluded from the computation. Fluorescence recovery at different timescales (seconds, minutes, tens of minutes) reflected different molecular processes (diffusion of monomer, dynamic F-actin turnover, stable F-actin turnover). […] Changes in dynamic and stable F-actin fractions were statistically significant (FIG. 11D-11E).

Assay [6] deals with F-actin. Description: Live confocal time-lapse microscopy of Sir-Actin stained myotubes. Particulars: 0.3 uM. The assay is classed as cell-based. As to the method:
However, some of the background non-sarcomeric F-actin was depolymerized as also quantified in (FIG. 10D). Myotubes with an immature sarcomeric structure were depolymerized ˜5 hours after ZygoA treatment (FIG. 10C). Poorly differentiated, myotubes without visible sarcomeric structures had rupturing F-actin cables and significant actin upon actin disruption with ZygoA. […] Sir-Actin intensity before and 12 hours after treatment along sarcomeric F-actin in mature myotubes (FIG. 10D-10E).

[7] abbreviates: poorly differentiated myotubes without visible sarcomeric structures.

On to `O=C1NC(=S)N(c2cccc(Br)c2)C(=O)C1=Cc1ccco1` [SMIFH2, 1-(3-Bromophenyl)-5-(2-furylmethylene)-2-thioxo-hexahydropyrimidine-4,6-dione], for which, in assay [1], the “effect on muscle contraction of 3D muscle” value is listed as “improved muscle contraction”.
For `C/C1=C/C(=O)O[C@@H]2C[C@@H](CC[C@H](C)/C=C\C=C\CC1)O[C@@](O)([C@@H]1CSC(=O)N1)C2` [Latrunculin A], the “effect on muscle contraction of 3D muscle” value in assay [1] is reported as “improved muscle contraction”.
As for `C=C1[C@@H](C)[C@H]2[C@H](Cc3ccccc3)NC(=O)[C@]23[C@H](OC(C)=O)/C=C/[C@@](C)(O)C(=O)[C@@H](C)C/C=C/[C@H]3[C@@H]1O` [ZygoA, Zygosporin A], the “transient increase in contraction after treatment” value in assay [2] (ZygoA treated tissues that responded the best, average, treatment at t=60 mins) is reported as about 2 ×. In addition, the “increase in median strength ratio relative to DMSO treated controls” value in assay [2] (strength after treatment extrapolated to t=0 (exponential decay model of rigor mortis) relative to actual strength at t=0) is about 2.5 fold. Besides, in assay [2] (treatment at t=60 mins, before rigor mortis decline), the “contractility changes of treated tissues vs DMSO” value is “transient improvement”. The “F-actin disruption in muscle explants (phalloidin stain)” value in the assay on F-actin [3] was “disrupted F-actin”. Besides, in assay [1] (0.3 μM, long term (1 day)), the “longer term effect on active contraction” value is “no significant effect”. Besides, in assay [1] (3 uM for 2 hours followed by washout, days after washout), the “muscle contraction after pulsed treatment compared to DMSO treated controls” value was “sustained improvement in muscle contraction”. Moreover, the “short term increase in force (active contraction)” value in assay [1] (3 μM, 2 hours of exposure) is listed as 2.6 ×. Further, the “decrease in contraction compared to the peak achieved 2 hours after exposure” value in assay [1] (3 μM, longer term (1 day)) was about 50%. In addition, the “increase in contraction relative to DMSO treated controls” value in assay [1] (3D muscle tissues, in 2 hours) is on record as about 2 fold. Further, the “effect of washout on contraction” value in assay [1] (washout of high dose 3 uM) is listed as “recovery of the force to the level of the peak”. Further, in assay [1] (washout of low dose 0.3 uM), the “effect of washout on contraction” value is “slight decrease in contraction (not significant)”. For the same compound, the “active contraction (Index of Movement, active contractile displacement)” value in assay [4] is reported as “significant improvement in active contraction”. Moreover, in the assay with F-actin [5] (FRAP, vs DMSO), the actin turnover time entry is reported as “slowed the actin turnover time in a dose-dependent manner”. Further, the “amount of stable F-actin” value with F-actin [5] (higher dose 3 uM) is listed as “reduces the amount of stable F-actin”. In the assay on F-actin [5] (low dose 0.3 uM), the “amount of dynamic F-actin” value was “reduced the amount of dynamic F-actin”. The “time to depolymerization of myotubes with immature sarcomeric structure” value in the assay with F-actin [6] was about 5 h. Further, in the assay on F-actin [6] (12 hours after treatment, mature sarcomeric structure), the “sarcomeric F-actin structure in mature myotubes after treatment” value is “still displayed the periodic sarcomeric structure”. In the assay on F-actin [6] (setting [7]), the “average F-actin filament length” value is recorded as “decrease in the average F-actin filament length” and the “number of F-actin filaments” value was “increase in number of F-actin filaments”.
For `C/C1=C\[C@H](C)C[C@H](C)OC(=O)C[C@H](c2ccc(O)cc2)NC(=O)[C@@H](Cc2c(Br)[nH]c3ccccc23)N(C)C(=O)[C@H](C)NC(=O)[C@@H](C)C1` [jasplakinolide], the “active contractility after F-actin stabilization” value in assay [1] is given as “gradual decrease in active contractility”.
